Assay results: the NIST ThermoML archive (doi:10.1016/j.fluid.2005.07.017)
± gives the expanded uncertainty stated by the source.

Test: xn = mol fraction of the nth substance listed
Settings: Liquid, Vibrating tube method

For c1ccsc1 [thiophene] + O=C=O, the mass density (332.85 K, 13009 kPa, x2 = 0.199) was 1012.87 ± 0.43 kg/m3, the mass density (332.85 K, 13971 kPa, x2 = 0) was 1030.09 ± 0.44 kg/m3 and the mass density (332.85 K, 14005 kPa, x2 = 0.199) was 1014.1 ± 0.43 kg/m3. The mass density (332.85 K, 15006 kPa, x2 = 0) was 1031.04 ± 0.44 kg/m3, the mass density (332.85 K, 15042 kPa, x2 = 0.199) was 1015.31 ± 0.43 kg/m3 and the mass density (332.85 K, 15990 kPa, x2 = 0) was 1032.01 ± 0.44 kg/m3. The mass density (332.85 K, 16037 kPa, x2 = 0.199) was 1016.53 ± 0.43 kg/m3, the mass density (332.85 K, 17034 kPa, x2 = 0.199) was 1017.71 ± 0.43 kg/m3 and the mass density (332.85 K, 17050 kPa, x2 = 0) was 1033.03 ± 0.44 kg/m3. For the same compound, the mass density (332.85 K, 17976 kPa, x2 = 0) was 1033.88 ± 0.44 kg/m3, the mass density (332.85 K, 18013 kPa, x2 = 0.199) was 1018.85 ± 0.43 kg/m3 and the mass density (332.85 K, 19004 kPa, x2 = 0.199) was 1019.98 ± 0.43 kg/m3. The mass density (332.85 K, 19018 kPa, x2 = 0) was 1034.92 ± 0.44 kg/m3, the mass density (332.85 K, 20016 kPa, x2 = 0.199) was 1021.13 ± 0.43 kg/m3 and the mass density (332.93 K, 10438 kPa, x2 = 0.9217) was 603.48 ± 1.4 kg/m3. It also gave a mass density (332.93 K, 11001 kPa, x2 = 0.9217) of 635.42 ± 1.1 kg/m3, a mass density (332.93 K, 12001 kPa, x2 = 0.9217) of 673.08 ± 0.95 kg/m3 and a mass density (332.93 K, 13005 kPa, x2 = 0.9217) of 700.08 ± 0.83 kg/m3. The mass density (332.93 K, 13949 kPa, x2 = 0.9217) was 720.24 ± 0.76 kg/m3, the mass density (332.93 K, 15012 kPa, x2 = 0.9217) was 738.73 ± 0.71 kg/m3 and the mass density (332.93 K, 16019 kPa, x2 = 0.9217) was 754.17 ± 0.68 kg/m3. The mass density (332.93 K, 17014 kPa, x2 = 0.9217) was 767.1 ± 0.65 kg/m3, the mass density (332.93 K, 18009 kPa, x2 = 0.9217) was 778.74 ± 0.63 kg/m3 and the mass density (332.93 K, 18964 kPa, x2 = 0.9217) was 789.26 ± 0.61 kg/m3. For the same compound, the mass density (332.93 K, 20027 kPa, x2 = 0.9217) was 798.89 ± 0.6 kg/m3, the mass density (332.93 K, 21018 kPa, x2 = 0.9217) was 807.65 ± 0.59 kg/m3 and the mass density (332.93 K, 22031 kPa, x2 = 0.9217) was 815.99 ± 0.59 kg/m3. It also gave a mass density (332.93 K, 23019 kPa, x2 = 0.9217) of 823.51 ± 0.57 kg/m3, a mass density (332.93 K, 23954 kPa, x2 = 0.9217) of 830.07 ± 0.56 kg/m3 and a mass density (332.93 K, 25005 kPa, x2 = 0.9217) of 836.64 ± 0.55 kg/m3. It also gave a mass density (332.96 K, 6987 kPa, x2 = 0.3818) of 977.03 ± 0.43 kg/m3, a mass density (332.96 K, 8041 kPa, x2 = 0.3818) of 979.02 ± 0.43 kg/m3 and a mass density (332.96 K, 9012 kPa, x2 = 0.3818) of 980.85 ± 0.43 kg/m3. For the same compound, the mass density (332.96 K, 10018 kPa, x2 = 0.3818) was 982.65 ± 0.43 kg/m3, the mass density (332.96 K, 11007 kPa, x2 = 0.3818) was 984.44 ± 0.43 kg/m3 and the mass density (332.96 K, 12018 kPa, x2 = 0.3818) was 986.2 ± 0.43 kg/m3. For the same compound, the mass density (332.96 K, 13030 kPa, x2 = 0.3818) was 987.96 ± 0.43 kg/m3, the mass density (332.96 K, 13998 kPa, x2 = 0.3818) was 989.61 ± 0.43 kg/m3 and the mass density (332.96 K, 14969 kPa, x2 = 0.3818) was 991.25 ± 0.43 kg/m3. It also gave a mass density (332.96 K, 16045 kPa, x2 = 0.3818) of 993.04 ± 0.42 kg/m3, a mass density (332.96 K, 17024 kPa, x2 = 0.3818) of 994.61 ± 0.42 kg/m3 and a mass density (332.96 K, 18020 kPa, x2 = 0.3818) of 996.22 ± 0.42 kg/m3. For the same compound, the mass density (332.96 K, 19050 kPa, x2 = 0.3818) was 997.85 ± 0.42 kg/m3, the mass density (333.04 K, 9091 kPa, x2 = 0.6996) was 929.67 ± 0.44 kg/m3 and the mass density (333.04 K, 10017 kPa, x2 = 0.6996) was 932.84 ± 0.61 kg/m3. It also gave a mass density (333.04 K, 11036 kPa, x2 = 0.6996) of 936.19 ± 0.59 kg/m3, a mass density (333.04 K, 11989 kPa, x2 = 0.6996) of 939.22 ± 0.56 kg/m3 and a mass density (333.04 K, 13024 kPa, x2 = 0.6996) of 942.4 ± 0.54 kg/m3. For the same compound, the mass density (333.04 K, 14004 kPa, x2 = 0.6996) was 945.28 ± 0.53 kg/m3, the mass density (333.04 K, 14904 kPa, x2 = 0.6996) was 947.84 ± 0.52 kg/m3 and the mass density (333.04 K, 16043 kPa, x2 = 0.6996) was 951.03 ± 0.51 kg/m3. It also gave a mass density (333.04 K, 17013 kPa, x2 = 0.6996) of 953.62 ± 0.5 kg/m3, a mass density (333.04 K, 18048 kPa, x2 = 0.6996) of 956.36 ± 0.5 kg/m3 and a mass density (333.04 K, 19011 kPa, x2 = 0.6996) of 958.88 ± 0.73 kg/m3. The mass density (333.15 K, 101 kPa, x2 = 0) was 1014.58 ± 0.44 kg/m3, the mass density (342.66 K, 5097 kPa, x2 = 0.199) was 988.63 ± 0.43 kg/m3 and the mass density (342.66 K, 6031 kPa, x2 = 0.199) was 989.99 ± 0.43 kg/m3. For the same compound, the mass density (342.66 K, 7084 kPa, x2 = 0.199) was 991.48 ± 0.43 kg/m3, the mass density (342.66 K, 8010 kPa, x2 = 0.199) was 992.78 ± 0.43 kg/m3 and the mass density (342.66 K, 9020 kPa, x2 = 0.199) was 994.19 ± 0.43 kg/m3. For the same compound, the mass density (342.66 K, 10077 kPa, x2 = 0.199) was 995.61 ± 0.43 kg/m3, the mass density (342.66 K, 11049 kPa, x2 = 0.199) was 996.93 ± 0.43 kg/m3 and the mass density (342.66 K, 11932 kPa, x2 = 0.199) was 998.15 ± 0.43 kg/m3. It also gave a mass density (342.66 K, 13009 kPa, x2 = 0.199) of 999.54 ± 0.43 kg/m3, a mass density (342.66 K, 13997 kPa, x2 = 0.199) of 1000.84 ± 0.43 kg/m3 and a mass density (342.66 K, 14996 kPa, x2 = 0.199) of 1002.14 ± 0.43 kg/m3. The mass density (342.66 K, 16043 kPa, x2 = 0.199) was 1003.48 ± 0.43 kg/m3, the mass density (342.66 K, 17018 kPa, x2 = 0.199) was 1004.66 ± 0.43 kg/m3 and the mass density (342.66 K, 18018 kPa, x2 = 0.199) was 1005.93 ± 0.43 kg/m3. It also gave a mass density (342.66 K, 19016 kPa, x2 = 0.199) of 1007.17 ± 0.43 kg/m3, a mass density (342.66 K, 20032 kPa, x2 = 0.199) of 1008.42 ± 0.43 kg/m3 and a mass density (342.69 K, 9071 kPa, x2 = 0.5661) of 923.94 ± 0.44 kg/m3. The mass density (342.69 K, 10000 kPa, x2 = 0.5661) was 926.85 ± 0.44 kg/m3, the mass density (342.69 K, 11013 kPa, x2 = 0.5661) was 929.94 ± 0.44 kg/m3 and the mass density (342.69 K, 11994 kPa, x2 = 0.5661) was 932.85 ± 0.44 kg/m3. It also gave a mass density (342.69 K, 13024 kPa, x2 = 0.5661) of 935.81 ± 0.44 kg/m3, a mass density (342.69 K, 13996 kPa, x2 = 0.5661) of 938.48 ± 0.43 kg/m3 and a mass density (342.69 K, 15008 kPa, x2 = 0.5661) of 941.2 ± 0.43 kg/m3. It also gave a mass density (342.69 K, 16016 kPa, x2 = 0.5661) of 943.82 ± 0.43 kg/m3, a mass density (342.69 K, 17021 kPa, x2 = 0.5661) of 946.37 ± 0.43 kg/m3 and a mass density (342.69 K, 18030 kPa, x2 = 0.5661) of 948.87 ± 0.43 kg/m3. It also gave a mass density (342.69 K, 19004 kPa, x2 = 0.5661) of 951.23 ± 0.43 kg/m3, a mass density (342.77 K, 1039 kPa, x2 = 0) of 1004.75 ± 0.44 kg/m3 and a mass density (342.77 K, 2072 kPa, x2 = 0) of 1005.93 ± 0.44 kg/m3. The mass density (342.77 K, 3033 kPa, x2 = 0) was 1007.02 ± 0.44 kg/m3, the mass density (342.77 K, 4023 kPa, x2 = 0) was 1008.17 ± 0.44 kg/m3 and the mass density (342.77 K, 5027 kPa, x2 = 0) was 1009.26 ± 0.44 kg/m3. For the same compound, the mass density (342.77 K, 6033 kPa, x2 = 0) was 1010.36 ± 0.44 kg/m3, the mass density (342.77 K, 7008 kPa, x2 = 0) was 1011.44 ± 0.44 kg/m3 and the mass density (342.77 K, 7998 kPa, x2 = 0) was 1012.5 ± 0.44 kg/m3. For the same compound, the mass density (342.77 K, 9005 kPa, x2 = 0) was 1013.59 ± 0.44 kg/m3, the mass density (342.77 K, 10000 kPa, x2 = 0) was 1014.65 ± 0.44 kg/m3 and the mass density (342.77 K, 10963 kPa, x2 = 0) was 1015.65 ± 0.44 kg/m3. For the same compound, the mass density (342.77 K, 12009 kPa, x2 = 0) was 1016.72 ± 0.44 kg/m3, the mass density (342.77 K, 13023 kPa, x2 = 0) was 1017.82 ± 0.44 kg/m3 and the mass density (342.77 K, 13928 kPa, x2 = 0) was 1018.74 ± 0.44 kg/m3. The mass density (342.77 K, 15009 kPa, x2 = 0) was 1019.83 ± 0.44 kg/m3, the mass density (342.77 K, 15998 kPa, x2 = 0) was 1020.79 ± 0.44 kg/m3 and the mass density (342.77 K, 17025 kPa, x2 = 0) was 1021.8 ± 0.44 kg/m3. The mass density (342.77 K, 17995 kPa, x2 = 0) was 1022.8 ± 0.44 kg/m3, the mass density (342.77 K, 19013 kPa, x2 = 0) was 1023.79 ± 0.44 kg/m3 and the mass density (342.77 K, 20001 kPa, x2 = 0) was 1024.73 ± 0.44 kg/m3. It also gave a mass density (342.91 K, 7074 kPa, x2 = 0.3818) of 959.84 ± 0.43 kg/m3, a mass density (342.91 K, 7993 kPa, x2 = 0.3818) of 961.78 ± 0.43 kg/m3 and a mass density (342.91 K, 8982 kPa, x2 = 0.3818) of 963.81 ± 0.43 kg/m3. For the same compound, the mass density (342.91 K, 10027 kPa, x2 = 0.3818) was 965.93 ± 0.43 kg/m3.
